Compound: C=CC(=O)Nc1cc(Nc2nccc(-c3cn(C)c4ccccc34)n2)c(OC)cc1N(C)CCN(C)C
- solubility (mole fraction) (in PEG-400, 298.2 K): 0.00214
- solubility (mole fraction) (in PEG-400, 303.2 K): 0.00307
- solubility (mole fraction) (in PEG-400, 308.2 K): 0.00421
- solubility (mole fraction) (in PEG-400, 313.2 K): 0.00583
- solubility (mole fraction) (in PEG-400, 318.2 K): 0.00733
- solubility (mole fraction) (in dichloromethane, 298.2 K): 0.000939
- solubility (mole fraction) (in dichloromethane, 303.2 K): 0.0014
- solubility (mole fraction) (in dichloromethane, 308.2 K): 0.00196
- solubility (mole fraction) (in dichloromethane, 313.2 K): 0.0028
- solubility (mole fraction) (in dichloromethane, 318.2 K): 0.00366
- solubility (mole fraction) (in ethanol, 298.2 K): 0.000472
- solubility (mole fraction) (in ethanol, 303.2 K): 0.000703
- solubility (mole fraction) (in ethanol, 308.2 K): 0.000989
- solubility (mole fraction) (in ethanol, 313.2 K): 0.00131
- solubility (mole fraction) (in ethanol, 318.2 K): 0.00176
- solubility (mole fraction) (in ethyl acetate, 298.2 K): 0.00129
- solubility (mole fraction) (in ethyl acetate, 303.2 K): 0.00174
- solubility (mole fraction) (in ethyl acetate, 308.2 K): 0.00241
- solubility (mole fraction) (in ethyl acetate, 313.2 K): 0.0031
- solubility (mole fraction) (in ethyl acetate, 318.2 K): 0.00398
- solubility (mole fraction) (in isopropyl myristate, 298.2 K): 0.000794
- solubility (mole fraction) (in isopropyl myristate, 303.2 K): 0.00122
- solubility (mole fraction) (in isopropyl myristate, 308.2 K): 0.00186
- solubility (mole fraction) (in isopropyl myristate, 313.2 K): 0.00263
- solubility (mole fraction) (in isopropyl myristate, 318.2 K): 0.00344
- solubility (mole fraction) (in propylene glycol, 298.2 K): 0.000766
- solubility (mole fraction) (in propylene glycol, 303.2 K): 0.00106
- solubility (mole fraction) (in propylene glycol, 308.2 K): 0.00143
- solubility (mole fraction) (in propylene glycol, 313.2 K): 0.00206
- solubility (mole fraction) (in propylene glycol, 318.2 K): 0.00265
- solubility (mole fraction) (in transcutol, 298.2 K): 0.00144
- solubility (mole fraction) (in transcutol, 303.2 K): 0.0022
- solubility (mole fraction) (in transcutol, 308.2 K): 0.00337
- solubility (mole fraction) (in transcutol, 313.2 K): 0.0046
- solubility (mole fraction) (in transcutol, 318.2 K): 0.00638
- solubility (mole fraction) (in water, 298.2 K): 1.85e-05
- solubility (mole fraction) (in water, 303.2 K): 2.24e-05
- solubility (mole fraction) (in water, 308.2 K): 2.72e-05
- solubility (mole fraction) (in water, 313.2 K): 3.18e-05
- solubility (mole fraction) (in water, 318.2 K): 3.69e-05
